Measurements: PMC9551036, “A selective and orally bioavailable VHL-recruiting PROTAC achieves SMARCA2 degradation in vivo” (Nature Communications, 2022)
“And” between values parts separate entries of the source, which are not always exact repeats. Identical values can stand only once. Like-named read-outs stand apart in the source and are kept apart here.

Legend:
[1] = target: T1, VCB: PROTAC: SMARCA2^BD ternary complex (Homo sapiens, UniProt P51531); test: TR-FRET ternary complex affinity and cooperativity, SMARCA2; format: binding
T1 construct: P51531-2, residues 1373-1493 with additional N-terminal SM residues; GST (TEV site) (N); His6 (TEV site) (N, cleaved yes); made in house; host or cells: SMARCA2^BD: Escherichia coli BL21(DE3)
T1 sequence (P51531 with tags, fused parts or gaps isoform P51531-2): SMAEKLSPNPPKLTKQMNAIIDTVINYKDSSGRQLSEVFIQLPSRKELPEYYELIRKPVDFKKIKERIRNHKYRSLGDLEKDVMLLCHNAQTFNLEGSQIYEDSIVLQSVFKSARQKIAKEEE

[2] = target: T2, (Homo sapiens, UniProt P51532); test: TR-FRET ternary complex affinity and cooperativity, SMARCA4; format: binding
T2 construct: P51532, residues 1448–1569 with additional N-terminal SM residues; GST (TEV site) (N); His6 (TEV site) (N, cleaved yes); made in house; host or cells: SMARCA4^BD: Escherichia coli BL21(DE3)
T2 sequence (P51532 1448-1569): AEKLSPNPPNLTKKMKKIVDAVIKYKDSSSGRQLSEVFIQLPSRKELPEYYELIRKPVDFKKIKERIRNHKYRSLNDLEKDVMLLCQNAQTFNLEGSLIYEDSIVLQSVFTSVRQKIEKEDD

SMARCA4 [3] = target: T3, SMARCA4 (Homo sapiens, UniProt P51532); test: SMARCA4 capillary electrophoresis protein assay in RKO cells; format: cell-based; design: endogenous in cells; host or cells: RKO, HCT116, LU99, HCC-364, HCT-15, HCC4006, SK-N-AS; settings: mean ± SD; for Dmax: RKO
T3 sequence (P51532 whole entry): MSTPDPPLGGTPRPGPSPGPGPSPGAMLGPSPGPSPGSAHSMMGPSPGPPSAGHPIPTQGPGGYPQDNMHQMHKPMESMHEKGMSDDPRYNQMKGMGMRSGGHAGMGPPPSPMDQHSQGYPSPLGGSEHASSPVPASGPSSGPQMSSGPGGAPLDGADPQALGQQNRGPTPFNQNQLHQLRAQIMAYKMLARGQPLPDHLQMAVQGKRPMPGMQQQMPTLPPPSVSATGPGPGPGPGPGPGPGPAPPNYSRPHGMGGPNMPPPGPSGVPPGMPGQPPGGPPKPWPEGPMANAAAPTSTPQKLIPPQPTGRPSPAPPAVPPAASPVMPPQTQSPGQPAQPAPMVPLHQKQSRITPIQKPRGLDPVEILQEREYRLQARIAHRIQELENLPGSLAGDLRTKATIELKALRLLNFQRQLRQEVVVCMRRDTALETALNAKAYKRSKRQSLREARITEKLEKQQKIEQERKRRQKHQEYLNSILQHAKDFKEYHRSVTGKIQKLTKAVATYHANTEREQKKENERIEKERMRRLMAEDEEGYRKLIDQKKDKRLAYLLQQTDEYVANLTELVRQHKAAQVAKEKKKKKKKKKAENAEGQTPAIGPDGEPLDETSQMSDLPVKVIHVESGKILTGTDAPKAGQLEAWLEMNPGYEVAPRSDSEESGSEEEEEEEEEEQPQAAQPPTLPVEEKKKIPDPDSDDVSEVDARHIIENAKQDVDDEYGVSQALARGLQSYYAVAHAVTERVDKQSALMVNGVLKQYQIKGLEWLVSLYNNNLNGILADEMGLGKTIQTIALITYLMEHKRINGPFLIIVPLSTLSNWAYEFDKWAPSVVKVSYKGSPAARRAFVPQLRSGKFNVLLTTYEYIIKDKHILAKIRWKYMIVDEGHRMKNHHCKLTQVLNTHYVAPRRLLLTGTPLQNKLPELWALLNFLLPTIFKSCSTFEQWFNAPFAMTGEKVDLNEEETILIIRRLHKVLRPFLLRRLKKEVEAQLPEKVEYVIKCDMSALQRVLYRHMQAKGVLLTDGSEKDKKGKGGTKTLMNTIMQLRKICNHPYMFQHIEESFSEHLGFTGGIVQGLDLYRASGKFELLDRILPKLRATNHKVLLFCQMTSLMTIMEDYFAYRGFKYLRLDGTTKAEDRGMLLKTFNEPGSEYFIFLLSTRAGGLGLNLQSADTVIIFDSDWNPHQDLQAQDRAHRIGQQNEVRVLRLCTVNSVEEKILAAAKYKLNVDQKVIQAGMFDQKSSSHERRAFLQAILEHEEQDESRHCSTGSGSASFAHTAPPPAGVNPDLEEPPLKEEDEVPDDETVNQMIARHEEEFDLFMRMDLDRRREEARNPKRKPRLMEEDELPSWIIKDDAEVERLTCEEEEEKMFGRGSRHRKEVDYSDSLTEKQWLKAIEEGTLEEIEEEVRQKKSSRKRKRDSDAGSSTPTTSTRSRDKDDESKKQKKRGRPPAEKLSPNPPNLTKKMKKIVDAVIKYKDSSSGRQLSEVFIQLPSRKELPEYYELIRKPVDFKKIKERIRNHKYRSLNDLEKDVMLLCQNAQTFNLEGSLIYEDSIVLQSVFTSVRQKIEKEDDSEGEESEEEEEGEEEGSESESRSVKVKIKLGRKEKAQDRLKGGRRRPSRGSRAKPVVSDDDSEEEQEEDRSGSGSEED
Procedure: 130,000–200,000 cells were seeded in 24-well plates and incubated until settled down or overnight. Compounds were dissolved in DMSO and added to cells in indicated concentrations using a digital dispenser following an optional media change. Cells were incubated for 4 or 18 h as indicated. For SMARCA2/4 half-life determination, 150,000 or 200,000 cells were seeded in 24-well plates. The next day, 50 µg/ml cycloheximide (Sigma) was added and cells were incubated for 1–24 h. For SMARCA2/4 re-synthesis measurements, 200,000 cells were seeded in 24-well plates. The next day, 100 nM compound 6 was added for 4 h to degrade SMARCA2/4, and a sample was taken as baseline for normalisation. To allow re-synthesis, a VHL binder (compound 32, 25 or 50 µM) was then added for 3 or 24 h. Medium was removed, cells were washed with PBS and lysed with 80 µl Lysis Buffer (MSD Tris Lysis Buffer (#R60TX-2) + Halt Inhibitor Cocktail (100x) + Benzonase 0.5 µL/ml). Samples were frozen at −80 °C and thawed at room temperature before use. Samples were transferred to a V-bottom plate and insoluble debris was pelleted by centrifugation for 5 min at maximum speed. The supernatant was transferred to a fresh plate. Master Mix and Ladder were prepared according to manufacturer’s instructions for 12–230 kDa Wes Separation Module, 8 × 25 capillary cartridges, Protein Simple #SM-W004 with Anti-Rabbit Detection Module for Wes, Peggy Sue or Sally Sue, Protein Simple #DM-001. 4.8 µl lysate were mixed with 1.2 µl Master Mix to achieve a protein concentration of ~0.5 µg/µl. Antibodies were diluted in Antibody Diluent II (SMARCA2 Sigma #HPA029981 RRID:AB_10602406 1:25–100, SMARCA4 Cell Signalling #49360 clone D1Q7F RRID:AB_2728743 1:15–120 or Abcam #ab110641 clone EPNCIR111A RRID:AB_10861578 1:60, GAPDH Abcam #ab9485 RRID:AB_307275 1:250). Wes plates were prepared and run according to manufacturer’s instructions. Proteins were quantified with accompanying Compass Software. SMARCA2/4 protein levels were normalised to GAPDH. […] Where applicable, curves were fitted using a 4-parametric logistic model.

SMARCA4 [4] = target: T3, SMARCA4; test: Imaging-based SMARCA4 protein assay in RKO cells; format: cell-based; design: endogenous in cells; host or cells: RKO, HCT116, LU99, HCC-364, HCT-15, HCC4006, SK-N-AS; settings: individual replicates
Procedure: 1250 cells per well in 60 µl medium were plated in flat bottom, poly-lysin coated 384-well plates (CellCarrier Ultra, Perkin Elmer). The next day, test compounds (10 µl of serial dilutions) and DMSO controls were diluted in DMEM medium such that the final DMSO content was <1% or were added using an ultrasound dispensing system. 4 wells were reserved for a background measurement. […] After aspirating the fixing solution, the cells were washed once with 25 µl PBS. 25 µl of blocking buffer (10% goat serum in PBS) was added and cells were incubated for 30 min, then washed once with PBS. Cells were stained with 20 µl of SMARCA2/4 primary antibody solution (Sigma #HPA029981 RRID:AB_10602406 1:1000 or Cell Signalling #52251 clone E9O6 RRID:AB_2799410 1:1000 in PBS with 10% FCS) for 2–4 h at room temperature. Cells were again washed once with PBS. […] The cell layer was then washed once with 25 µl PBS, the wells were filled with 25 µl PBS and the plates were sealed with an adhesive sheet. They were then imaged on the Opera Phoenix (mean intensity in the nucleus). Results were computed as percent of controls ((value of test compound − background)/(value of the negative control DMSO—background) multiplied by 100). EC50 values were computed using a 4-parametric logistic model.

[5] = target: VCB: PROTAC: SMARCA4^BD ternary complex (Homo sapiens, UniProt P40337+P51532); test: TR-FRET ternary complex affinity and cooperativity, SMARCA4; format: binding; design: P51532, residues 1448–1569 with additional N-terminal SM residues; GST (TEV site) (N); His6 (TEV site) (N, cleaved yes); made in house; host or cells: SMARCA4^BD: Escherichia coli BL21(DE3)
Sequence of VCB: PROTAC: SMARCA4^BD ternary complex (P51532 1448-1569): as the sequence (P51532 1448-1569) above
Sequence of VCB: PROTAC: SMARCA4^BD ternary complex (P40337 54-213): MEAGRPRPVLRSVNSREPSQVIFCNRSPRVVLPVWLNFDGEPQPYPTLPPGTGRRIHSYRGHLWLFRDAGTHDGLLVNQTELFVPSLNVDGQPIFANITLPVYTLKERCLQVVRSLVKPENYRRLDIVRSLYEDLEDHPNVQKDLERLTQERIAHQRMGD
Sequence of VCB: PROTAC: SMARCA4^BD ternary complex (Q15369 17-112 partner): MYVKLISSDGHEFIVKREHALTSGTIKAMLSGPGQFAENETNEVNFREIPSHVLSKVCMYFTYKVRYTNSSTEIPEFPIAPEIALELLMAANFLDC
Sequence of VCB: PROTAC: SMARCA4^BD ternary complex (Q15370 1-104 partner): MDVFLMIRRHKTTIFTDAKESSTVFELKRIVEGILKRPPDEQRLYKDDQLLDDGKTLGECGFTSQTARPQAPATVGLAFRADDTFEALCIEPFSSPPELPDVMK

[6] = TR-FRET competition for SMARCA2BD, without VCB, mean ± SD, read-out: TR-FRET SMARCA2BD EC50
[7] = binary, PROTAC alone, individual replicates, read-out: SMARCA2 BD EC50
[8] = TR-FRET competition for SMARCA4BD, without VCB, mean ± SD, read-out: TR-FRET SMARCA4BD EC50
[9] = binary, PROTAC alone, individual replicates, read-out: SMARCA4 BD EC50
[10] = 4h, read-out: RKO (4h) SMARCA4 DC50
[11] = 18h, read-out: RKO (18h) SMARCA4 DC50
[12] = PROTAC + VCB, individual replicates, read-out: Ternary SMARCA4 BD EC50 (PROTAC + VCB)
[13] = TR-FRET competition for SMARCA4BD, + VCB, mean ± SD, read-out: TR-FRET Ternary SMARCA4BD EC50 (PROTAC + VCB)

`Cc1ncsc1-c1ccc(CNC(=O)[C@@H]2C[C@@H](O)CN2C(=O)[C@@H](NC(=O)C2(F)CC2)C(C)(C)C)c(OCCOCCOCCN2CCC(c3ccc4c(c3)n(C3CCCC3)c3nc(=O)c5c(Br)cccc5n43)CC2)c1` [compound 21] was tested, and the EC50 [1, 6] was 255 ± 9 nM, the EC50 [1, 7] was 246 nM and 264 nM and 255 nM and the EC50 [2, 8] was 520 ± 73 nM. The EC50 [2, 9] was 443 nM and 585 nM and 542 nM, the DC50 (SMARCA4 [3]; RKO (4 h)) was 21 ± 19 nM and the “SMARCA4 Dmax” value (SMARCA4 [3]; RKO (4 h)) was 61 ± 16%. For the same compound, the DC50 (SMARCA4 [3]; RKO (18 h)) was 83 ± 78 nM, the “SMARCA4 Dmax” value (SMARCA4 [3]; RKO (18 h)) was 75 ± 3% and the DC50 (SMARCA4 [4]; [10]) was 22.9 nM and 45.5 nM and 8.98 nM. For the same compound, the DC50 (SMARCA4 [4]; [11]) was 42.3 nM and 189 nM and 70.5 nM, the EC50 [5, 12] was 119 nM and 144 nM and 128 nM and the EC50 [5, 13] was 130 ± 13 nM.
Compound `CN1CCN(c2nc(=O)c3c(I)cccc3o2)CC1` [compound 16] has an EC50 [1, 7] of over 10000 nM, an EC50 [2, 9] of over 10000 nM and a DC50 (SMARCA4 [3]; RKO (4 h)) of over 25000 nM. For the same compound, the DC50 (SMARCA4 [3]; RKO (18 h)) was over 25000 nM, the DC50 (SMARCA4 [4]; [10]) was over 25000 nM and the DC50 (SMARCA4 [4]; [11]) was over 25000 nM. It also gave an EC50 [5, 12] of over 10000 nM.
In the case of `Cc1ncsc1-c1ccc([C@H](CCCCCN2CCC(c3ccc4c(c3)n(C3CCCC3)c3nc(=O)c5c(Br)cccc5n43)CC2)NC(=O)[C@@H]2C[C@@H](O)CN2C(=O)[C@@H](NC(=O)C2(F)CC2)C(C)(C)C)cc1` [compound 11], the EC50 [1, 6] is reported as 123 ± 45 nM, the EC50 [1, 7] is reported as 183 nM and 73.1 nM and 107 nM and > 400 nM and 65.7 nM and 113 nM and 145 nM and 121 nM and 105 nM and 125 nM and 146 nM and 228 nM and 144 nM and the EC50 [2, 8] is reported as 279 ± 40 nM. For the same compound, the EC50 [2, 9] was 241 nM and 322 nM and 280 nM, the DC50 (SMARCA4 [3]; RKO (4 h)) was 15 ± 9 nM and the DC50 (SMARCA4 [3]; RKO (18 h)) was 12 ± 3 nM. For the same compound, the Dmax (SMARCA4 [3]; RKO (4 h)) was 53 ± 16%, the Dmax (SMARCA4 [3]; RKO (18 h)) was 78 ± 11% and the DC50 (SMARCA4 [4]; [10]) was 20 nM and 10.1 nM and 26.4 nM and 8.2 nM. The DC50 (SMARCA4 [4]; [11]) was 9.56 nM and 14.6 nM and 11.5 nM and 9.12 nM and 15.1 nM, the EC50 [5, 12] was 65.3 nM and 77.7 nM and 60.4 nM and the EC50 [5, 13] was 67 ± 9 nM.
For `Cc1ncsc1-c1ccc([C@H](CC[C@H](C)CCN2CCC(c3ccc4c(c3)n(C3CCCC3)c3nc(=O)c5c(Br)cccc5n43)CC2)NC(=O)[C@@H]2C[C@H](O)CN2C(=O)[C@@H](NC(=O)C2(F)CC2)C(C)(C)C)cc1` [compound 12], the EC50 [1, 6] was 203 ± 65 nM, the EC50 [1, 7] was 125 nM and 272 nM and 263 nM and 154 nM and the EC50 [2, 8] was 347 ± 41 nM. The EC50 [2, 9] was > 400 nM and 339 nM and 302 nM, the DC50 (SMARCA4 [3]; RKO (4 h)) was over 25000 nM and the DC50 (SMARCA4 [3]; RKO (18 h)) was 5830 nM. For the same compound, the Dmax (SMARCA4 [3]; RKO (18 h)) was 94 ± 7%, the DC50 (SMARCA4 [4]; [10]) was over 25000 nM and the DC50 (SMARCA4 [4]; [11]) was 4950 nM and 4740 nM and 8100 nM and 6070 nM. The EC50 [5, 12] was > 400 nM and 385 nM and 314 nM and the EC50 [5, 13] was 367 ± 38 nM.
